Patent publication US20240336653A1, “PEPTIDE COMPOUND TARGETING ELASTIN-DERIVED PEPTIDES AND USE THEREOF” (Shenzhen Turier Biotech Co., Ltd., priority 2020, published 2024)
*1 amine or outer side, *2 acyl side, *3 side chain or, on linkers, in order; H or OH if unused. Primed or numbered codes have the meaning given here. Where no end group is shown, it is not given here. [ ]: non-standard residue; d: D form. The star is where a group is joined. C20 diacid = O=C(O)CCCCCCCCCCCCCCCCCCC(=O)*; γGlu = O=C(O)[C@H](CCC(=O)[*:2])N[*:1]; Iva = CC[C@](C)(N)C(=O)O; PEG2′ = not defined here

How the values were obtained:
TGF-β = assay: ELISA of TGFβ in serum of mice of the bleomycin model; assay type: in vivo, C57BL/6J mice; details: BLM mice, 150 μg/kg daily intraperitoneal, 14 days, FIG. 6-B
Method: (§1) Molding method: 78 male C57BL/6J mice, 16-18 g in weight and 6-8 weeks old, provided by Laboratory Animal Center, Sun Yat-sen University, randomly divided into 13 groups: 1) normal control group (Normal), n=6; 2) sham-operated saline control group (Saline), n=6; 3) bleomycin model group (BLM), n=6; and 4) model treatment group: administration of 150 μg/kg series compounds to mice, 10 groups in total, n=6/group. On the 7th day after the operation of bleomycin induced pulmonary fibrosis in mice, mice in the model treatment group are treated with drugs (administration frequency: daily administration/150 μg/kg, intraperitoneal injection). Samples are taken 14 days after administration, and pathological observations are recorded.
(§2) The bleomycin (purchased from TCI Shanghai)) induced pulmonary fibrosis model manifests the following pathological features: bronchiectasis, hydropic degeneration of bronchial epithelial cells, obvious edema and widening of alveolar interstitium, and deposition of a large number of fibroblasts and collagen tissue. The alveolar structure almost completely disappears, filled with fibrous connective tissue, and accompanied by inflammatory cell infiltration. After 14 days of administration, the mice in the model treatment group are treated and sampled. Blood is taken from the retrobulbar vein for detection of serological indicators, and […] is taken for pathological analysis.
(§3) The occurrence and development of fibrotic diseases are related to TGF-β and MMP-9 induced EMT process. Matrix metalloproteinases (MMPs) are matrix degrading proteases that degrade all components of extracellular matrix. They participate in the pathophysiological process of pulmonary fibrosis, play an important role in the abnormal remodeling of extracellular matrix and destruction of basement membrane, and promote the recruitment of inflammatory cells and fibroblasts. The increased expression of MMP-9 in pulmonary fibrosis animal models and patients, higher than the normal MMP-9 level, may destroy normal tissue structure and increase the migration of inflammatory cells to the disease site. In order to further explore the inhibitory mechanism of polypeptide drugs on bleomycin induced pulmonary fibrosis, we detect the expression of TGFβ, MMP9 cell factors in serum of mice in each group by ELISA. […] We speculate that its mechanism should be related to TGF-β.

[1] = test system: CCl4 induced hepatic fibrosis; assay: Carbon tetrachloride (CCl4) induced hepatic fibrosis model in mice; assay type: in vivo, C57BL/6J mice; details: 100.0 μg/kg intraperitoneal, 3 weeks of administration; for aggregation of inflammatory cells in the liver (HE staining) / hepatic fibrosis of mice: FIG. 2; for expression of Collagen I in the liver (immunohistochemistry): FIG. 3; for collagen deposition in the liver (Sirius red staining): FIG. 4
Method: Molding method: 72 male C57BL/6J mice, male, 18-22 g in weight and 8 weeks old, provided by Laboratory Animal Center, Sun Yat-sen University, randomly divided into 12 groups: 1) control group (Oil)+saline, intraperitoneal injection, n=6; 2) model control group (CCl4)+saline, intraperitoneal injection, n=6; administration of CCl4 to mice once every three days for 6 weeks; 3) model administration group (CCl4)+100.0 μg/kg series of compounds (group 10), intraperitoneal injection, n=6/group. The mice in the control group are injected with corn oil at the same volume and frequency according to the administration volume of 20% CCl4 at the weight of 5.0 μL/g. Administration frequency: administration of CCl4 to mice once every three days for 6 weeks. After 3 weeks of administration of CCl4 to mice in the model administration group, peptide compounds 1, 5, 7, 11, 12, 13, 17, 18, 21 and 22 are administered for 3 weeks from the 4th week. CCl4 and Oil are purchased from Shanghai Aladdin Biochemical Technology Co., Ltd.
In the CCl4 induced hepatic fibrosis model, the manifestations are: inflammatory cell infiltration around the central vein area, hydropic degeneration of hepatic cells, and increased accumulation of collagen fibers in the portal area and the hepatic interlobular septum. After three weeks of administration, the mice are treated and sampled. Blood is taken from the retrobulbar vein for detection of serological indicators, and liver tissue is taken for pathological analysis.
(§4) Hematoxylin-eosin (H&E) staining: paraffin embedded tissue sections are taken and baked at 60° C. for 1 h. Dewaxing and hydration: xylene for 20 minutes→xylene for 20 minutes→absolute alcohol for 15 minutes→absolute alcohol for 15 minutes→95% alcohol for 10 minutes→90% alcohol for 5 minutes→80% alcohol for 5 minutes. Staining: hematoxylin for 7 minutes→rinsing with tap water→differentiation with 1% hydrochloric acid alcohol for 1 s→rinsing with tap water→eosin staining for 15 s-20 s→rinsing with tap water. Dehydration and transparency: 75% alcohol for 1 s→85% alcohol for 1 s→95% alcohol for 1 s→100% alcohol for 1 s→xylene for Is→xylene for 1 s. The sections are aired for 30 minutes and sealed with gum.
Sirius red staining: drying and dewaxing; standing for 5.0 minutes in double distilled water; Sirius red staining for 60-80 minutes in a dark room; washing for 5 s with 0.5% glacial acetic acid; dehydration and transparency, sealing and taking photos.
Immunohistochemistry: drying sections, dewaxing, and then soaking in double distilled water for 5 minutes. Antigen retrieval: putting the shelf where pathological sections are placed into a beaker containing citric acid buffer (PH=6.0), and keeping it under high temperature and pressure for 15 minutes; taking out the beaker and letting it stand at room temperature until the temperature drops to the room temperature, then taking out the sections and putting them into 3.0% hydrogen peroxide for 10 minutes to block the endogenous peroxidase activity, and then washing them with PBS for three times, 5 minutes each time; sealing the tissues with 1.0% BSA for 1 h; removing 1.0% BSA, adding Collagen I antibody on the tissue according to the proportion recommended in the Description, and staying overnight at 4° C.; taking out the pathological sections next day, adding the second antibody with horseradish peroxidase after the room temperature is restored, incubating it at 37° C. for 60 minutes, and then use DAB (diaminobenzidine) ([…], USA) to develop color; and re-staining with hematoxylin staining solution, washing with tap water for 5 minutes, differentiating with 1% hydrochloric acid alcohol, then washing with tap water for 5 minutes again, dehydrating, airing, sealing, and taking photos (H&E staining solution and Sirius red staining solution are purchased from Sangon Biotech (Shanghai) Co., Ltd., and Collagen I antibody is purchased from CST Corporation).

[2] = test system: bleomycin induced pulmonary fibrosis; assay: Bleomycin (BLM) induced pulmonary fibrosis model in mice; assay type: in vivo, C57BL/6J mice; details: 150 μg/kg daily intraperitoneal, 14 days, FIG. 5; for degree of pulmonary fibrosis (H&E staining and Masson staining): compared with bleomycin control group; for fibronectin in pulmonary parenchyma (α-SMA and Collagen1 immunohistochemistry): compared with bleomycin group
Method: as §1, §2
as §4, with “H&E” for “Hematoxylin-eosin (H&E)”, “1 s→xylene” for “Is→xylene”
Masson staining: drying and dewaxing; mordanting; adding celestine blue staining solution for 2-3 min, and washing with water; adding Mayer hematoxylin staining solution and washing with water; differentiating with acid alcohol differentiation liquid for several seconds, and washing with tap water; adding ponceau magenta staining solution and washing with distilled water; treating with phosphomolybdic acid solution; adding aniline blue staining solution for 5 min; treating with weak acid solution for 2 min; dehydration and transparency, airing and sealing with gum.
Immunohistochemistry: drying sections, dewaxing, and then soaking in double distilled water for 5 minutes. […]

LX2 cells = assay: Activity evaluation in LX2 cell model (α-SMA protein expression); assay type: cell-based, human; details: 1.0 μM and 10.0 μM, 48 hours incubation, GAPDH internal reference, FIG. 1
From the text: In LX2 cell model (which can be directly used as the evaluation model of hepatic fibrosis cells in vitro, because LX2 cells are human liver activated stellate cells. The LX2 cells are purchased from China Center for Type Culture Collection of the Chinese Academy of Sciences, Shanghai, China), the anti-fibrosis activities of peptide compounds 1-25 are preliminarily screened, and the expression of the marker α-SMA protein of myofibroblast activation is detected. The peptide compounds 1-25 is subjected to cell incubation for 48 hours by using two concentrations (1.0 μM and 10.0 μM). The control group is given the same volume of Dulbecco's modified Eagle medium (DMEM) (purchased from Gibco in the United States), and GAPDH (purchased from TransGen Biotech) as the internal reference, α-actin (α-SMA) is a symbolic feature that distinguishes myoblast cells from myofibroblasts.

MMP9 = assay: ELISA of MMP9 in serum of mice of the bleomycin model; assay type: in vivo, C57BL/6J mice; details: BLM mice, 150 μg/kg daily intraperitoneal, 14 days, FIG. 6-A
Method: as §1, §2, §3

Substance | concentration of TGF-β in serum of mice (TGF-β) | aggregation of inflammatory cells in the liver (HE staining) [1] | hepatic fibrosis of mice [1] | expression of Collagen I in the liver (immunohistochemistry) [1] | collagen deposition in the liver (Sirius red staining) [1] | degree of pulmonary fibrosis (H&E staining and Masson staining) [2] | fibronectin in pulmonary parenchyma (α-SMA and Collagen1 immunohistochemistry) [2] | inhibiting and improving the activity of α-SMA (expression of α-SMA protein) (LX2 cells) | concentration of MMP9 in serum of mice (MMP9)
(PEG2-PEG2-γGlu-CO(CH2)18CH3)-Val-Iva-Gly-Ser-Pro-Ser-Ala-Gln-Glu-Glu-Ala-Ser-Pro-Ala-NH2 (V[Iva]GSPSAQEEASPA-NH2; not fully specified (N-terminus); printed as (PEG2-PEG2-γGlu-CO(CH2)18CH3)-Val-Iva-Gly-Ser-Pro-Ser-Ala-Gln-Glu-Glu-Ala-Ser-Pro-Ala-NH2) [Compound 13] | significantly reduce | significantly improved | significantly improved | significant therapeutic improvement | significant therapeutic improvement | significantly reduced | significantly less than that in bleomycin group | better effects on inhibiting and improving the activity of α-SMA | significantly reduce
(PEG2-PEG2-γGlu-CO(CH2)18CO2H)-Val-Iva-Gly-Ser-Pro-Ser-Ala-Gln-Asp-Glu-Ala-Ser-Pro-Ala-NH2 ({C20 diacid-γGlu-PEG2′-PEG2′}-V[Iva]GSPSAQDEASPA-NH2) [Compound 5] | significantly reduce | significantly improved | significantly improved | significant therapeutic improvement | significant therapeutic improvement | significantly reduced | significantly less than that in bleomycin group | better effects on inhibiting and improving the activity of α-SMA | significantly reduce
(PEG2-PEG2-γGlu-CO(CH2)18CO2H)-Val-Iva-Gly-Ser-Pro-Ser-Ala-Gln-Glu-Glu-Ala-Ser-Pro-Ala-NH2 ({C20 diacid-γGlu-PEG2′-PEG2′}-V[Iva]GSPSAQEEASPA-NH2) [Compound 7] | significantly reduce | significantly improved | significantly improved | significant therapeutic improvement | significant therapeutic improvement | significantly reduced | significantly less than that in bleomycin group | better effects on inhibiting and improving the activity of α-SMA | significantly reduce
(PEG2-PEG2-γGlu-CO(CH2)18CO2H)-Val-Iva-Gly-Ser-Pro-Ser-Ala-Gln-Glu-Glu-Ala-Ser-Pro-Leu-NH2 ({C20 diacid-γGlu-PEG2′-PEG2′}-V[Iva]GSPSAQEEASPL-NH2) [Compound 11] | significantly reduce | significantly improved | significantly improved | significant therapeutic improvement | significant therapeutic improvement | significantly reduced | significantly less than that in bleomycin group | better effects on inhibiting and improving the activity of α-SMA | significantly reduce
